Test results published in patent publication US10519152B2, “Compounds and their use in treating cancer” (AstraZeneca AB, priority 2017, dated 2019).

Biological target: T1, recombinant human Estrogen Receptor alpha ligand binding domain, residues 307-554 (ER alpha-LBD (GST)) (Homo sapiens, UniProt P03372)
T1 construct: made in house
T1 sequence (P03372 307-554): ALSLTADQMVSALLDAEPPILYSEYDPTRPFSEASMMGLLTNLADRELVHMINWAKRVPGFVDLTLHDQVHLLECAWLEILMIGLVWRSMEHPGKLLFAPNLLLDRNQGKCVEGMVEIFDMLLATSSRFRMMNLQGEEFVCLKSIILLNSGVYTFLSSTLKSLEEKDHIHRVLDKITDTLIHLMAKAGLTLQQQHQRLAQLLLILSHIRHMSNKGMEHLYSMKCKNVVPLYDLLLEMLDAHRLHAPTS
Assay: ERα binding assay (LanthaScreen TR-FRET competition)
Details: TR-FRET competition with Fluormone ES2 tracer, 4 hours at room temperature; single experiment or average of two or more

Question: How did the IC50 turn out when `Cc1ncsc1-c1ccc(CNC(=O)[C@@H]2C[C@@H](O)CN2C(=O)[C@@H](NC(=O)COCCOCCCCCOc2cnc([C@@H]3c4[nH]c5ccccc5c4C[C@@H](C)N3CC(C)(F)F)c(F)c2)C(C)(C)C)cc1` [Example 164, (2S,4R)-1-((S)-2-(2-(2-((5-((6-((1S,3R)-2-(2,2-Difluoropropyl)-3-methyl-2,3,4,9-tetrahydro-1H-pyrido[3,4-b]indol-1-yl)-5-fluoropyridin-3-yl)oxy)pentyl)oxy)ethoxy)acetamido)-3,3-dimethylbutanoyl)-4-hydroxy-N-(4-(4-methylthiazol-5-yl)benzyl)pyrrolidine-2-carboxamide] was run?
Answer: 6.6 nM

Question: How did the IC50 turn out when `Cc1ncsc1-c1ccc(CNC(=O)[C@@H]2C[C@@H](O)CN2C(=O)[C@@H](NC(=O)COCCCCCCCOc2cc(F)c([C@@H]3c4[nH]c5ccccc5c4C[C@@H](C)N3CC(C)(C)F)c(F)c2)C(C)(C)C)cc1` [Example 7, (2S,4R)-1-((S)-2-(2-((7-(3,5-Difluoro-4-((1R,3R)-2-(2-fluoro-2-methylpropyl)-3-methyl-2,3,4,9-tetrahydro-1H-pyrido[3,4-b]indol-1-yl)phenoxy)heptyl)oxy)acetamido)-3,3-dimethylbutanoyl)-4-hydroxy-N-(4-(4-methylthiazol-5-yl)benzyl)pyrrolidine-2-carboxamide] was run?
Answer: 1.2 nM

Question: `Cc1ncsc1-c1ccc(CNC(=O)[C@@H]2C[C@@H](O)CN2C(=O)[C@@H](NC(=O)COCCCOCCCCCOc2cc(F)c([C@@H]3c4[nH]c5ccccc5c4C[C@@H](C)N3CC(C)(C)F)c(F)c2)C(C)(C)C)cc1` [Example 138, (2S,4R)-1-((S)-2-(2-(3-((5-(3,5-Difluoro-4-((R,3R)-2-(2-fluoro-2-methylpropyl)-3-methyl-2,3,4,9-tetrahydro-1H-pyrido[3,4-b]indol-1-yl)phenoxy)pentyl)oxy)propoxy)acetamido)-3,3-dimethylbutanoyl)-4-hydroxy-N-(4-(4-methylthiazol-5-yl)benzyl)pyrrolidine-2-carboxamide] was tested. Which IC50 did it give?
Answer: 0.6 nM

Question: `Cc1ncsc1-c1ccc(CNC(=O)[C@@H]2C[C@@H](O)CN2C(=O)[C@@H](NC(=O)CCCOc2ccc(COc3cc(F)c([C@@H]4c5[nH]c6ccccc6c5C[C@@H](C)N4CC(C)(C)F)c(F)c3)nc2)C(C)(C)C)cc1` [Example 161, (2S,4R)-1-((S)-2-(4-((6-((3,5-Difluoro-4-((1R,3R)-2-(2-fluoro-2-methylpropyl)-3-methyl-2,3,4,9-tetrahydro-1H-pyrido[3,4-b]indol-1-yl)phenoxy)methyl)pyridin-3-yl)oxy)butanamido)-3,3-dimethylbutanoyl)-4-hydroxy-N-(4-(4-methylthiazol-5-yl)benzyl)pyrrolidine-2-carboxamide] was tested. Which IC50 did it give?
Answer: 0.7 nM

Question: `Cc1ncsc1-c1ccc([C@H](C)NC(=O)[C@@H]2C[C@@H](O)CN2C(=O)[C@@H](NC(=O)C(F)(F)OCCCOCCCOc2cc(F)c([C@@H]3c4[nH]c5ccccc5c4C[C@@H](C)N3CC(C)(C)F)c(F)c2)C(C)(C)C)cc1` [Example 120, (2S,4R)-1-((S)-2-(2-(3-(3-(3,5-Difluoro-4-((1R,3R)-2-(2-fluoro-2-methylpropyl)-3-methyl-2,3,4,9-tetrahydro-1H-pyrido[3,4-b]indol-1-yl)phenoxy)propoxy)propoxy)-2,2-difluoroacetamido)-3,3-dimethylbutanoyl)-4-hydroxy-N—((S)-1-(4-(4-methylthiazol-5-yl)phenyl)ethyl)pyrrolidine-2-carboxamide] was tested. Which IC50 did it give?
Answer: 0.9 nM

Question: Which IC50 does the source give for `Cc1ncsc1-c1ccc(CNC(=O)[C@@H]2C[C@@H](O)CN2C(=O)[C@@H](NC(=O)COCCCCCCCCOc2ccc([C@@H]3c4[nH]c5ccccc5c4C[C@@H](C)N3CC(F)F)nc2)C(C)(C)C)cc1` [Example 13, (2S,4R)-1-((S)-2-(2-((8-((6-((1S,3R)-2-(2,2-Difluoroethyl)-3-methyl-2,3,4,9-tetrahydro-1H-pyrido[3,4-b]indol-1-yl)pyridin-3-yl)oxy)octyl)oxy)acetamido)-3,3-dimethylbutanoyl)-4-hydroxy-N-(4-(4-methylthiazol-5-yl)benzyl)pyrrolidine-2-carboxamide] here?
Answer: 5 nM

Question: `Cc1ncsc1-c1ccc(CNC(=O)[C@@H]2C[C@@H](O)CN2C(=O)[C@@H](NC(=O)COCCCCCOCCCOc2cc(F)c([C@@H]3c4[nH]c5ccccc5c4C[C@@H](C)N3CC(C)(C)F)c(F)c2)C(C)(C)C)cc1` [Example 136, (2S,4R)-1-((S)-2-(2-((5-(3-(3,5-Difluoro-4-((1R,3R)-2-(2-fluoro-2-methylpropyl)-3-methyl-2,3,4,9-tetrahydro-1H-pyrido[3,4-b]indol-1-yl)phenoxy)propoxy)pentyl)oxy)acetamido)-3,3-dimethylbutanoyl)-4-hydroxy-N-(4-(4-methylthiazol-5-yl)benzyl)pyrrolidine-2-carboxamide] was tested. Which IC50 did it give?
Answer: 1.2 nM

Question: How did the IC50 turn out when `Cc1ncsc1-c1ccc(CNC(=O)[C@@H]2C[C@@H](O)CN2C(=O)[C@@H](NC(=O)COCCCCCCCCOc2cc(F)c([C@@H]3c4[nH]c5ccccc5c4C[C@@H](C)N3CC(C)(C)F)c(F)c2)C(C)(C)C)cc1` [Example 12, (2S,4R)-1-((S)-2-(2-((8-(3,5-Difluoro-4-((1R,3R)-2-(2-fluoro-2-methylpropyl)-3-methyl-2,3,4,9-tetrahydro-1H-pyrido[3,4-b]indol-1-yl)phenoxy)octyl)oxy)acetamido)-3,3-dimethylbutanoyl)-4-hydroxy-N-(4-(4-methylthiazol-5-yl)benzyl)pyrrolidine-2-carboxamide] was run?
Answer: 1.6 nM

Question: Which IC50 does the source give for `Cc1ncsc1-c1ccc(CNC(=O)[C@@H]2C[C@@H](O)CN2C(=O)[C@@H](NC(=O)COCCCC2CN(CCOc3cc(F)c([C@@H]4c5[nH]c6ccccc6c5C[C@@H](C)N4CC(C)(C)F)c(F)c3)C2)C(C)(C)C)cc1` [Example 47, (2S,4R)-1-((S)-2-(2-(3-(1-(2-(3,5-difluoro-4-((1R,3R)-2-(2-fluoro-2-methylpropyl)-3-methyl-2,3,4,9-tetrahydro-1H-pyrido[3,4-b]indol-1-yl)phenoxy)ethyl)azetidin-3-yl)propoxy)acetamido)-3,3-dimethylbutanoyl)-4-hydroxy-N-(4-(4-methylthiazol-5-yl)benzyl)pyrrolidine-2-carboxamide] here?
Answer: 0.7 nM

Question: With `Cc1ncsc1-c1ccc([C@H](C)NC(=O)[C@@H]2C[C@@H](O)CN2C(=O)[C@@H](NC(=O)CCOCCCCCCCOc2cc(F)c([C@@H]3c4[nH]c5ccccc5c4C[C@@H](C)N3CC(C)(C)F)c(F)c2)C(C)(C)C)cc1` [Example 114, (2S,4R)-1-((S)-2-(3-((7-(3,5-difluoro-4-((1R,3R)-2-(2-fluoro-2-methylpropyl)-3-methyl-2,3,4,9-tetrahydro-1H-pyrido[3,4-b]indol-1-yl)phenoxy)heptyl)oxy)propanamido)-3,3-dimethylbutanoyl)-4-hydroxy-N—((S)-1-(4-(4-methylthiazol-5-yl)phenyl)ethyl)pyrrolidine-2-carboxamide] as the compound, how does the IC50 read?
Answer: 0.9 nM

Question: `Cc1ncsc1-c1ccc(CNC(=O)[C@@H]2C[C@@H](O)CN2C(=O)[C@@H](NC(=O)COCCOCCCCCOc2cc(F)c([C@@H]3c4[nH]c5ccccc5c4C[C@@H](C)N3CC(F)(F)F)c(F)c2)C(C)(C)C)cc1` [Example 139, (2S,4R)-1-((S)-2-(2-(2-((5-(3,5-Difluoro-4-((1R,3R)-3-methyl-2-(2,2,2-trifluoroethyl)-2,3,4,9-tetrahydro-1H-pyrido[3,4-b]indol-1-yl)phenoxy)pentyl)oxy)ethoxy)acetamido)-3,3-dimethylbutanoyl)-4-hydroxy-N-(4-(4-methylthiazol-5-yl)benzyl)pyrrolidine-2-carboxamide] was tested. Which IC50 did it give?
Answer: 0.5 nM
